Measurements from patent US11207312B2, “Metallo-beta-lactamase inhibitors and methods of use thereof” (priority 2017, dated 2021).
Read-outs that look alike come from different tables or passages of the source.

Tests used:
[1] = biological target: VIM-1 (Pseudomonas aeruginosa (strain ATCC 15692 / DSM 22644 / CIP 104116 / JCM 14847 / LMG 12228 / 1C / PRS 101 / PAO1), UniProt A0A0F7KYQ8); assay: biochemical; settings: CCF2-FA fluorescence assay, 2 hours at 25° C.; read-out: VIM1 IC50
Summary of the method: (§1)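 In pH 7 phosphate buffer (100 mM) with 10 μM ZnSO4 and 0.005% Tween-20, CCF2-FA hydrolysis (1.25 μM) by 1 pM NDM-1, 2 pM IMP-1 or 30 pM VIM-1 was run 2 h at 25° C with inhibitor from 20 to 0.00063 μM. Ex 405/em 460 nm signal fitted to a 4-parameter curve for IC50.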

[2] = biological target: IMP-1 (Serratia marcescens, UniProt P52699); assay: biochemical; settings: CCF2-FA fluorescence assay, 2 hours at 25° C.; read-out: IMP1 IC50
Sequence of IMP-1 (P52699 whole entry, looked up, species assumed): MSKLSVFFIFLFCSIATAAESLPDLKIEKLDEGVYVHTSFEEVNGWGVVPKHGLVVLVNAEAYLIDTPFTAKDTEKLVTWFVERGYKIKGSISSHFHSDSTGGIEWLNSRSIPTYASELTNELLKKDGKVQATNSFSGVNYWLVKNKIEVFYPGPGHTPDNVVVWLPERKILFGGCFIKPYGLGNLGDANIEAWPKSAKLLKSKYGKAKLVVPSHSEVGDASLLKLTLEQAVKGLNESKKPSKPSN
Summary of the method: as §1

[3] = tested on: P. aeruginosa MB9798 (efflux+, IMP-1 plasmid); settings: for MB9798 MITC95 P. aeruginosa uM Efflux WT: efflux + (MB9798) strain, imipenem at 2 μg/mL, in the presence of a class A, C, D serine β-lactamase inhibitor closely related to relebactam; for Efflux ratio: fold difference between efflux+ (MB9798) and efflux− (MB9799) strains
Summary of the method: (§2)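 PAO1-derived isogenic pair (oprD+, inducible AmpC), efflux+ MB5919 or efflux− MB5890 parent, carrying an electroporated IMP-1 plasmid from a clinical isolate. Microbroth MIC with fixed imipenem and/or ceftazidime (usually CLSI breakpoint) plus fixed class A/C inhibitor; MBL inhibitor serially titrated, concentration restoring susceptibility recorded.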

[4] = biological target: VIM-2 (Escherichia coli, UniProt Q5U7L7); assay: biochemical
[5] = biological target: NDM-1 (Klebsiella pneumoniae, UniProt C7C422); assay: biochemical; assay type: biochemical; settings: CCF2-FA fluorescence assay, 2 hours at 25° C.
Sequence of NDM-1 (C7C422 whole entry, looked up, species assumed): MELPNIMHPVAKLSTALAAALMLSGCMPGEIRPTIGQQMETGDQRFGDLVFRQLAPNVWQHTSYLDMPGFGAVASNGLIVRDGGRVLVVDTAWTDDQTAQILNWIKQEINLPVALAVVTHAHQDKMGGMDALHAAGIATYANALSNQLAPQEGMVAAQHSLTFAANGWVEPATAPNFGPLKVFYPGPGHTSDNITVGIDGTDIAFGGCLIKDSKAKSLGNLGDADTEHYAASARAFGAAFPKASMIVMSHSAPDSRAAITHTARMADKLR
Summary of the method: as §1

[6] = tested on: P. aeruginosa MB9799 (efflux-, IMP-1 plasmid); assay type: cell-based, Pseudomonas aeruginosa; settings: efflux − (MB9799) strain; imipenem at 2 μg/mL; in the presence of a class A, C, D serine β-lactamase inhibitor closely related to relebactam
Summary of the method: as §2

[7] = tested on: Klebsiella pneumoniae expressing VIM-1 (IHMA599644); assay type: cell-based; settings: with imipenem 1 μg/ml; 95% inhibition of bacterial growth
Summary of the method: (§3)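 Imipenem 1 μg/ml + inhibitor titration in cation-adjusted MHB (1.1× stock medium); overnight-cultured colonies suspended in saline, diluted 1:100. 35 °C, 22–24 h; absorbance read. MITC95 = lowest compound conc giving 95% growth inhibition.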

[8] = tested on: Escherichia coli expressing NDM-1 (CLB30016); assay type: cell-based; settings: with imipenem 1 μg/ml; 95% inhibition of bacterial growth
Summary of the method: as §3

[9] = tested on: Serratia marcescens expressing IMP-1 (CL5741); assay type: cell-based; settings: with imipenem 1 μg/ml; 95% inhibition of bacterial growth
Summary of the method: as §3

[10] = CCF2-FA fluorescence assay, read-out: VIM2 IC50

Structure (SMILES)	IC50 [1] [nM]	IC50 [2] [nM]	MB9798 MITC95 P. aeruginosa uM Efflux WT [3] [µM]	Efflux ratio [3]	IC50 [4, 10] [nM]	IC50 [5] [nM]	MB9799 MITC95 P. aeruginosa uM Efflux Mutant [6] [µM]	IHMA599644 K. pneumoniae MITC95 VIM [7] [µM]	CLB30016 E. coli MITC95 NDM [8] [µM]	CL5741 S. marcescens MITC95 IMP [9] [µM]	IC50 ([4]; VIM2 IC50, CCF2-FA fluorescence assay) [nM]
NC[C@@H](O)CNS(=O)(=O)c1ccc(N[C@H]2CCC[C@H]2N)c(-c2nn[nH]n2)c1S(N)(=O)=O [Example 178, N1-((R)-3-amino-2-hydroxypropyl)-4-(((1S,2R)-2-aminocyclopentyl)amino)-3-(2H-tetrazol-5-yl)benzene-1,2-disulfonamide]	80.1	101	25.00	4.00	132	29	6.25	6.25	1.56	6.25	
NC[C@@H](O)CNS(=O)(=O)c1ccc(N2CCC(CC(N)=O)CC2)c(-c2nn[nH]n2)c1S(N)(=O)=O [Example 25, (R)-2-(1-(4-(N-(3-amino-2-hydroxypropyl)sulfamoyl)-3-sulfamoyl-2-(2H-tetrazol-5-yl)phenyl)piperidin-4-yl)acetamide]	0.17	0.39	3.13	1.00	0.74	0.54	3.13	6.25	3.13	6.25	
CC(N)C1CCN(c2ccc(S(=O)(=O)NC[C@H](O)CN)c(S(N)(=O)=O)c2-c2nnn[nH]2)CC1 (stereo partly drawn) [Example 50, N1-((R)-3-amino-2-hydroxypropyl)-4-(4-(1-aminoethyl)piper-idin-1-yl)-3-(1H-tetrazol-5-yl)benzene-1,2-disulfonamide]	0.15	2.11	0.78	2.00	4.12	4.14	0.39	0.78	0.39	0.78	
NC[C@@H](O)CNS(=O)(=O)c1ccc(N[C@H]2C[C@H](N)C2)c(-c2nnn[nH]2)c1S(N)(=O)=O [Example 192, (R)—N1-(3-amino-2-hydroxypropyl)-4-((3-aminocyclobutyl)amino)-3-(1H-tetrazol-5-yl)benzene-1,2-disulfonamide]	67.5	97	6.25	2.00		66.3	3.13	6.25	1.56	3.13	200
NC(=O)[C@H]1CN(c2ccc(S(=O)(=O)N[C@@H]3CCNC3)c(S(N)(=O)=O)c2-c2nn[nH]n2)CCN1 [Example 197, (R)-4-(4-(N-((R)-pyrrolidin-3-yl)sulfamoyl)-3-sulfamoyl-2-(2H-tetrazol-5-yl)phenyl)piperazine-2-carboxamide]	0.74	9.95	3.13	2.00	1.89	1.44	1.56	1.56	0.29	0.39	
NCC1CCN(c2ccc(S(=O)(=O)NC[C@H](O)CN)c(S(N)(=O)=O)c2-c2nnn[nH]2)CC1 [Example 34]	0.18	4.07	0.39	2.00	3.49	2.05	0.20	0.39	0.39	0.39	
NCC1CCCN(c2ccc(S(=O)(=O)NC[C@H](O)CN)c(S(N)(=O)=O)c2-c2nn[nH]n2)CC1 (stereo partly drawn) [Example 139, N1-((R)-3-amino-2-hydroxypropyl)-4-(4-(aminomethyl)azepan-1-yl)-3-(2H-tetrazol-5-yl)benzene-1,2-disulfonamide bis(2,2,2-trifluoroacetate)]	0.39	18.5	1.56	2.00	4.52	18.2	0.78	1.56	0.78	0.78	
N[C@H]1CCN(c2ccc(S(=O)(=O)N[C@@H]3CCNC3)c(S(N)(=O)=O)c2-c2nn[nH]n2)C[C@H]1F [Example 199, 4-((3R,4S)-4-amino-3-fluoropiperidin-1-yl)-N1-((R)-pyrrolidin-3-yl)-3-(2H-tetrazol-5-yl)benzene-1,2-disulfonamide]	0.18	6.11	0.78	1.00	4.27	1.69	0.78	0.39	0.39	0.10	
N.NC[C@@H](O)CNS(=O)(=O)c1ccc(N2CCN(CC(=O)O)CC2)c(-c2nnn[nH]2)c1S(N)(=O)=O [Example 137, ammonium (R)-2-(4-(4-(N-(3-amino-2-hydroxypropyl)sulfamoyl)-3-sulfamoyl-2-(1H-tetrazol-5-yl)phenyl)piperazin-1-yl)acetate]	16.1	4.97	6.25	2.00	15.3	3.5	3.13	6.25	0.78	1.56	
CN1CCN(c2ccc(S(=O)(=O)N[C@@H]3CCNC3)c(S(N)(=O)=O)c2-c2nnn[nH]2)CC1=O [Example 65, 4-(4-methyl-3-oxopiperazin-1-yl)-N1-[(3R)-pyrrolidin-3-yl]-3-(1H-tetrazol-5-yl)benzene-1,2-disulfonamide]	0.22	2.26	3.13	2.00	1	1.28	1.56	6.25	3.13	3.13	
NC[C@@H](O)CNS(=O)(=O)c1ccc(N2CCC(C(N)CO)CC2)c(-c2nn[nH]n2)c1S(N)(=O)=O (single isomer, unassigned) [Example 181]	0.22	5.78	0.78	1.00	5.87	4.62	0.78	1.56	0.39	0.39	
NC[C@@H](O)CNS(=O)(=O)c1ccc(N2CCC(n3ccnc3)CC2)c(-c2nnn[nH]2)c1S(N)(=O)=O [Example 174, (R)-4-(4-(1H-imidazol-1-yl)piperidin-1-yl)-N1-(3-amino-2-hydroxypropyl)-3-(2H-tetrazol-5-yl)benzene-1,2-disulfonamide]	0.07	0.36	3.13	2.00	0.22	0.69	1.56	3.13	0.78	0.78	
NS(=O)(=O)c1c(S(=O)(=O)N[C@@H]2CCNC2)ccc(N2CCC(F)(CO)CC2)c1-c1nnn[nH]1 [Example 91, 4-[4-fluoro-4-(hydroxymethyl)piperidin-1-yl]-N1-[(3R)-pyrrolidin-3-yl]-3-(1H-tetrazol-5-yl)benzene-1,2-disulfonamide]	0.47	1.26	3.13	2.00	1.65	0.42	1.56	6.25	3.13	3.13	
